The numbers were not newly measured in patent EP4759824A1, “DANSYLAMIDE-MODIFIED COMPOUNDS TARGETING PSMA, PREPARATION METHOD THEREFOR, AND USE THEREOF” (Yantai Lannacheng Biotechnology Co., Ltd., priority 2023, dated 2025), which cites them from elsewhere.

In this series the test system is PSMA-positive mCRPC. As to conditions: combined with SOC, mCRPC patients.

In the case of “lutetium Lu-177 vipivotide tetraxetan [^177Lu-PSMA-617]”, the “median radiographic progression-free survival” value (SOC alone 3.4 months) is given as 8.7 months. For the same substance, where the note is “SOC alone 11.3 months”, the median overall survival is listed as 15.3 months.
